What was measured:
[1] = molecular target: Heat shock protein HSP90 (Homo sapiens, UniProt P07900+P08238)
Description: Binding affinity to Hsp90 by fluorescent polarization assay

[2] = tested on: HCT-116; assay: Inhibition of cell proliferation in HCT116 human colon cancer cell line; type: functional
[3] = tested on: BT-474; assay: Inhibition of cell proliferation in BT474 human breast cancer cell line after 48 hr exposure; type: functional; conditions: BT-474, 48 h

IC50 [1] [µM] | SMILES | GI50 [2] [µM] | GI50 [3] [µM]
6.6 | CCc1ccc(S(=O)(=O)Nc2ccc(O)c(-c3c(O)ccc4ccccc34)c2)cc1 | – | –
6.1 | O=S(=O)(Nc1ccc(O)c(-c2c(O)ccc3ccccc23)c1)c1ccc(Br)cc1 | – | –
15.2 | Cc1cc(C)c(S(=O)(=O)Nc2ccc(O)c(-c3c(O)ccc4ccccc34)c2)cc1C | – | –
8.8 | O=S(=O)(Nc1ccc(O)c(-c2c(O)ccc3ccccc23)c1)c1ccc(F)cc1 | – | –
– | O=S(=O)(Nc1ccc(O)c(-c2c(O)ccc3ccccc23)c1)c1cc(Cl)ccc1Cl | 29 | 34.9
26.4 | CC(C)(C)c1ccc(S(=O)(=O)Nc2ccc(O)c(-c3c(O)ccc4ccccc34)c2)cc1 | – | –
3.3 | O=S(=O)(Nc1ccc(O)c(-c2c(O)ccc3ccccc23)c1)c1ccccc1 | – | –
– | C[C@@H]1C[C@H]2O[C@@H]2/C=C\C=C\C(=O)Cc2c(Cl)c(O)cc(O)c2C(=O)O1 [RADICICOL] | 0.13 | –
– | C=CCNC1=C2C[C@@H](C)C[C@H](OC)[C@H](O)[C@@H](C)/C=C(\C)[C@H](OC(N)=O)[C@@H](OC)/C=C\C=C(/C)C(=O)NC(=CC1=O)C2=O [TANESPIMYCIN] | 0.16 | –

SMILES | IC50 [1] [µM] | GI50 [2] [µM] | GI50 [3] [µM]
O=S(=O)(Nc1ccc(O)c(-c2c(O)ccc3ccccc23)c1)c1cccs1 | 0.6 | 59.8 | –
O=S(=O)(Nc1ccc(O)c(-c2c(O)ccc3ccccc23)c1)c1ccc(Cl)cc1 | 2.2 | 27.8 | –

— ChEMBL document CHEMBL1141210, “Structure-based discovery of a new class of Hsp90 inhibitors” (Bioorg Med Chem Lett, 2005)
